Test system: patient's serum-derived HCV
Test: HCV RNA in HuS-E/2 cells cultured in a hollow fiber and infected with patient's serum-derived HCV, with drug added (Example 5)
Format: cell-based, hepatitis C virus (HCV)
Settings: NIM811 1 μg/ml; added after 24 hours of infection; HuS-E/2 cells in hollow fiber; collected after 3, 5 and 7 days; PCR
Protocol: HuS-E/2 cells with a density of 1×10^5 cells/well were packed into a lumen of a hollow fiber of a cellulose triacetate hollow fiber module (Toyobo Co., Ltd.; Code: TMHFK-001) by applying a centrifugal force of 80 G for 90 seconds, and then were shake-cultured with use of a 12-well plate. After 24 hours, the culture fluid was replaced with 0.8 ml of a culture fluid, prepared with use of human hepatocellular serum-free culture fluid (Toyobo Co., Ltd.; Code: TMHHM-001), which contained serum-derived HCV with 2×10^5 genome copies/ml. After 24 hours of infection, the culture fluid was removed, and the HuS-E/2 cells were washed with PBS three times. Then, three types of new culture fluid were separately added, namely a culture fluid containing INF alpha (1000 IU/ml), a culture fluid containing NIM811 (1 μg/ml), and a culture fluid containing neither of them. Each of the culture fluids was replaced with a new one every two days. The HuS-E/2 cells were collected after 3, 5, and 7 days of infection with serum-derived HCV, and their total RNA was collected with use of a Sepasol I (Nacalai Tesque, Inc). The total RNA was assayed for HCV RNA by a PCR method.

SMILES: C/C=C/C[C@@H](C)[C@@H](O)[C@H]1C(=O)N[C@@H](CC)C(=O)N(C)CC(=O)N(C)[C@@H]([C@@H](C)CC)C(=O)N[C@@H](C(C)C)C(=O)N(C)[C@@H](CC(C)C)C(=O)N[C@@H](C)C(=O)N[C@H](C)C(=O)N(C)[C@@H](CC(C)C)C(=O)N(C)[C@@H](CC(C)C)C(=O)N(C)[C@@H](C(C)C)C(=O)N1C [NIM811]
- proliferation of patient's serum-derived HCV in the cells (HCV RNA): remarkably inhibits

Reference: patent publication US20100028973A1, “METHOD FOR PRO[…] VIRUS, HOLLOW FIBER FOR CULTURING HEPATITIS VIRUS-INFECTED CELLS, AND USE THEREOF” (KYOTO UNIVERSITY, priority 2006, published 2010)
